Results from US9040660B2, “Long-acting gastrin derivatives” (priority 2010, dated 2015).
Where two headings read alike, the source gives them in different places. Numbered stars: 1 amine (or outer) side, 2 acyl side, 3 side chain; on linkers, the order of the positions; unused ones are H or OH. Peptide text beside a SMILES is read from it. * marks the point of attachment. C18 diacid = O=C(O)CCCCCCCCCCCCCCCCC(=O)*; γGlu = O=C(O)[C@H](CCC(=O)[*:2])N[*:1]; AEEA = NCCOCCOCC(=O)O

Tests used:
[1] = molecular target: T1, CCK2 receptor (gastrin receptor) (Homo sapiens, UniProt P32239); format: cell-based; conditions: [Leu15] Gastrin-17 = 100, NIH 3T3/CCK2R cells, calcium mobilization
T1 construct: expressed in transfected cells; host or cells: NIH 3T3/CCK2R cells (mouse fibroblast line overexpressing CCK2R, kept under G418 selection)
T1 sequence (P32239 1-447): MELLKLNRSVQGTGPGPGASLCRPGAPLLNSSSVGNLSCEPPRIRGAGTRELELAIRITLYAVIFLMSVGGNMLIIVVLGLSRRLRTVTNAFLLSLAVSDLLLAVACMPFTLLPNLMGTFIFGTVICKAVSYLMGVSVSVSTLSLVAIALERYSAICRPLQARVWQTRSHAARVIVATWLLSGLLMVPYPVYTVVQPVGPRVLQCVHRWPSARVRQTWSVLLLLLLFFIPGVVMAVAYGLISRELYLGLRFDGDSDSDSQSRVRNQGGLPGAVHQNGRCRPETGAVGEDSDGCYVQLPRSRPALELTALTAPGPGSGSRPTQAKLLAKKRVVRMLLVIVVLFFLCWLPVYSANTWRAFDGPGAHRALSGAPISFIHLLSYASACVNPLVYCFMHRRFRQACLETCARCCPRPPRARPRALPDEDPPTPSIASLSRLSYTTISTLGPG
Method: Assay (I): In Vitro Receptor Potency In vitro receptor potency was measured using a CCK2 receptor mediated calcium mobilization assay. The CCK2 receptor (gastrin receptor) signals via the heterotrimeric G-protein, Gq, to activate phospholipase C(PLC). This leads to generation of inositol-1,4,5-trisphosphate (IP3) that releases calcium from intracellular stores. The primary rise in cytosolic calcium concentration is followed by activation of calcium dependent calcium channels in the plasma membrane allowing extracellular calcium to enter the cell. The rise in calcium concentration is transient, but it can be measured in situ by loading the cells with a calcium dependent fluorescent probe and monitored by the use of 96- or 384-well fluorescence plate readers. In the current assay, NIH 3T3/CCK2R cells were seeded in black PolyLysin coated 384 well plates with clear bottom at 14000 cells per well and incubated overnight in 25 μl (per well) Gibco Nut. mix F-12 Glutamax medium with 10% FCS, 1% penicillin and streptomycin and 1 mg/ml […]418). The next day […] dye solution (Ca 5 probe from Molecular Devices, dissolved in HBSS/Hepes buffer pH 7.4 containing 0.1% Ovalbumin, 0.005% Tween 20, 3.5 μM Probenecid, 50 μM PDE inhibitor and 0.2% CaCl2) was added per well and the plate was incubated for 1 hour at room temperature. After incubation, these plates were loaded onto FLIPR Tetra from Molecular Devices together with the sample plates containing dilution series of gastrin analogues in HBSS/Hepes buffer with 30% DMSO. During the assay run, 1 μl sample was transferred from the sample plate to the assay plate. Beside the baseline fluorescence measurement, a second fluorescence measurement was performed after 30 seconds with both measurements using the […] 540 nm/590 nm. For each agonist concentration E=Emax. Emin was calculated. The concentration-response relationship was calculated using a four-parameter logistic model using non linear regression analysis (Prism 5.02, GraphPad Software). In vitro receptor potency of gastrin compounds was measured using Assay (I).

[2] = set-up: species or system Göttingen mini-pigs; conditions: minipig, in vivo, iv, 10 nmol/kg
Method: Assay (II): Minipig i.v. PK
Six male Göttingen mini-pigs weighing approximately 20 to 23 kg from Ellegaard Gottingen Minipigs A/S, Denmark were comprised in the study. The mini-pigs were dosed intra venous (i.v.) via a central catheter in vena cava caudalis. The catheter was flushed with 10 ml saline post administration. Blood was sampled from the central catheter. Test substances were dissolved in a vehicle consisting of in 50 mM sodium phosphate, […] sodium chloride, 0.05% tween80 pH 7.4. The pigs were dosed with 10 nmol of gastrin compound (such as gastrin derivative)/kg body weight or 10 nmol Gastrin-17/kg body weight. Blood samples were taken at the following time points: pre-dose, 5 minutes, 15 minutes, 30 minutes, 45 minutes, 1, 1.5, 2, 3, 4, 6, 8, 10, 24, 48, 72, 96, 120, 168, 192 and 216 hours post dosing. The blood samples were collected into test tubes containing EDTA buffer for stabilization and kept on ice for max. 20 minutes before centrifugation. The centrifugation procedure to separate plasma may be: 4° C., approx. 2500 g for 10 minutes. Plasma was collected and immediately transferred to Micronic tubes stored at −20° C. until assayed.
Blood samples were analysed for gastrin compound content using a competitive scintillation proximity assay (SPA). The assay is a radiometric-ligand binding assay using […]™ imaging particles. The assay involves a rabbit anti-human gastrin-17(2-17) polyclonal antibody, wherein the human gastrin-17(2-17) against which said antibody raised contained position 2-17 of SEQ ID NO:2 (said antibody is obtainable from professor Jens Rehfeld, Rigshospitalet, Copenhagen, Denmark), [^125I]-Tyr^12 gastrin I (human) (which has the sequence pG1u-[…][^125I]Tyr-Gly-Trp-Met-Asp-Phe-NH2, item no. NEX176010UC, […]® Waltham, Massachusetts, USA) and PS […]™ particles coated with anti-rabbit Ig antibodies. Gastrin compounds (in calibrators, controls or unknown samples) and [^125I]-Tyr12 human gastrin I will compete for the binding to the polyclonal rabbit anti human gastrin I antibody. The anti-rabbit Ig antibodies on the […]™ particles recognize the anti-gastrin antibodies bringing the [^125I-] gastrin molecules in close proximity to the […]™ particles resulting in light emission from the particles. The […]™ will image the emitted light that is reversely correlated to the amount of gastrin compound present in the sample. 5μL sample, calibrator or control was applied to white 384-well polystyrene plates followed by 10μantibody working solution (rabbit-anti-Gastrin serum from rabbit 2609 batch 11/10-73), 10μl tracer working solution and 10μl bead working solution. […] After exchanging the seal against a new one, the light emission was detected with a […]™ Multimodality Imaging System. […]
The concentration-response relationship was calculated using a four-parameter logistic model using non linear regression analysis and the output of the assay was the concentration of the respective gastrin analogue in pM. The in vivo plasma half life was determined by non-compartmental analysis (NCA) of plasma concentration-time profiles from each animal. NCA may be carried out as follows: Plasma concentration-time profiles were analyzed by non-compartmental pharmacokinetics analysis (NCA) using WinNonlin (Pharsight Inc., Mountain View, Calif., USA); NCA was performed using the individual plasma concentration-time profiles from each animal.
Half life of gastrin compounds was determined according to Assay (II).

[3] = dog, in vivo; cited from earlier work
[4] = Table 2: N-terminal acylation/truncation series

Relative Receptor Potency ([1]; Table 3: acylation position (Lys scan) series)	half-life [2]	SMILES	Relative Receptor Potency [1, 4]	half life [3]
57	109 ± 26 h	CC(C)C[C@H](NC(=O)[C@H](Cc1c[nH]c2ccccc12)NC(=O)CNC(=O)[C@H](Cc1ccc(O)cc1)NC(=O)[C@H](C)NC(=O)[C@H](CCC(=O)O)NC(=O)[C@H](CCC(=O)O)NC(=O)[C@H](CCC(=O)O)NC(=O)[C@H](CCC(=O)O)NC(=O)[C@H](CCC(=O)O)NC(=O)[C@H](CC(C)C)NC(=O)[C@H](Cc1c[nH]c2ccccc12)NC(=O)[C@@H]1CCCN1C(=O)CNC(=O)[C@H](CCC(N)=O)NC(=O)COCCOCCNC(=O)COCCOCCNC(=O)CC[C@H](NC(=O)CCCCCCCCCCCCCCCCC(=O)O)C(=O)O)C(=O)N[C@@H](CC(=O)O)C(=O)N[C@@H](Cc1ccccc1)C(N)=O [N-α-#-[Leu15] Gastrin-17, N-alpha-{2-(2-{2-[2-(2-{2-[4-Carboxy-4-(17-carboxyheptadecanoylamino)butyrylamino]ethoxy}-ethoxy)acetylamino]-ethoxy}ethoxy)acetyl}[Gln1,Leu15] gastrin-17] ({C18 diacid-γGlu-AEEA-AEEA}-QGPWLEEEEEAYGWLDF-NH2)	76	–
–	64 ± 6 h	CSCC[C@H](NC(=O)[C@H](Cc1c[nH]c2ccccc12)NC(=O)CNC(=O)[C@H](Cc1ccc(O)cc1)NC(=O)[C@H](C)NC(=O)[C@H](CCC(=O)O)NC(=O)[C@H](CCC(=O)O)NC(=O)[C@H](CCC(=O)O)NC(=O)[C@H](CCC(=O)O)NC(=O)[C@H](CCC(=O)O)NC(=O)[C@H](CC(C)C)NC(=O)[C@H](Cc1c[nH]c2ccccc12)NC(=O)[C@@H]1CCCN1C(=O)CNC(=O)[C@H](CCC(N)=O)NC(=O)COCCOCCNC(=O)COCCOCCNC(=O)CC[C@H](NC(=O)CCCCCCCCCCCCCCCCC(=O)O)C(=O)O)C(=O)N[C@@H](CC(=O)O)C(=O)N[C@@H](Cc1ccccc1)C(N)=O [N-alpha-#-gastrin-17, N-alpha-{2-(2-{2-[2-(2-{2-[4-Carboxy-4-(17-carboxyheptadecanoylamino)butyrylamino]ethoxy}-ethoxy)acetylamino]-ethoxy}ethoxy)acetyl}[Gln1] gastrin-17 (A)]	–	–

The next lines start with the compound.

SMILES	Relative Receptor Potency ([1]; Table 3: acylation position (Lys scan) series)	half-life [2]	Relative Receptor Potency [1, 4]	half life [3]
CC(C)C[C@H](NC(=O)[C@H](Cc1c[nH]c2ccccc12)NC(=O)CNC(=O)[C@H](Cc1ccc(O)cc1)NC(=O)[C@H](C)NC(=O)[C@H](CCC(=O)O)NC(=O)[C@H](CCC(=O)O)NC(=O)[C@H](CCC(=O)O)NC(=O)[C@H](CCC(=O)O)NC(=O)COCCOCCNC(=O)COCCOCCNC(=O)CC[C@H](NC(=O)CCCCCCCCCCCCCCCCC(=O)O)C(=O)O)C(=O)N[C@@H](CC(=O)O)C(=O)N[C@@H](Cc1ccccc1)C(N)=O [N-α-#-[Leu15] Gastrin-17 (7-17), N-alpha-{2-(2-{2-[2-(2-{2-[4-Carboxy-4-(17-carboxyheptadecanoylamino)butyrylamino]ethoxy}-ethoxy)acetylamino]-ethoxy}ethoxy)acetyl}[Leu15] gastrin-17 (7-17)] ({C18 diacid-γGlu-AEEA-AEEA}-EEEEAYGWLDF-NH2)	–	~95 h	39	–
CSCC[C@H](NC(=O)[C@H](Cc1c[nH]c2ccccc12)NC(=O)CNC(=O)[C@H](Cc1ccc(O)cc1)NC(=O)[C@H](C)NC(=O)[C@H](CCC(=O)O)NC(=O)[C@H](CCC(=O)O)NC(=O)[C@H](CCC(=O)O)NC(=O)[C@H](CCC(=O)O)NC(=O)[C@H](CCC(=O)O)NC(=O)[C@H](CC(C)C)NC(=O)[C@H](Cc1c[nH]c2ccccc12)NC(=O)[C@@H]1CCCN1C(=O)CNC(=O)[C@@H](N)CCC(N)=O)C(=O)N[C@@H](CC(=O)O)C(=O)N[C@@H](Cc1ccccc1)C(N)=O [gastrin-17, reference compound]	–	0.058 ± 0.007 h	–	2 to 8 min
CC(C)C[C@H](NC(=O)[C@H](Cc1c[nH]c2ccccc12)NC(=O)CNC(=O)[C@H](Cc1ccc(O)cc1)NC(=O)[C@H](C)NC(=O)[C@H](CCC(=O)O)NC(=O)[C@H](CCC(=O)O)NC(=O)[C@H](CCC(=O)O)NC(=O)[C@H](CCC(=O)O)NC(=O)[C@H](CCC(=O)O)NC(=O)[C@H](CC(C)C)NC(=O)[C@H](Cc1c[nH]c2ccccc12)NC(=O)COCCOCCNC(=O)COCCOCCNC(=O)CC[C@H](NC(=O)CCCCCCCCCCCCCCCCC(=O)O)C(=O)O)C(=O)N[C@@H](CC(=O)O)C(=O)N[C@@H](Cc1ccccc1)C(N)=O [N-α-#-[Leu15] Gastrin-17 (4-17), N-alpha-{2-(2-{2-[2-(2-{2-[4-Carboxy-4-(17-carboxyheptadecanoylamino)butyrylamino]ethoxy}-ethoxy)acetylamino]-ethoxy}ethoxy)acetyl}[Leu15] gastrin-17 (4-17)] ({C18 diacid-γGlu-AEEA-AEEA}-WLEEEEEAYGWLDF-NH2)	–	95 h	58	–
